This is an account of results in US20060058339A1, “Compounds modulating c-kit activity and uses therefor” (priority 2004, published 2006).

Test [1] deals with M-07e cell line stimulated by SCF. Put plainly: M-07e SCF-stimulated cell proliferation (CellTiter-Glo). It counts as cell-based. Particulars: 72 h, 100 ng/ml SCF, three days, luminescence (ATP content), read-out: IC50, growth of SCF stimulated M-07e cells. The text has this:
As one example, M-07e cell line (DSMZ catalog #ACC 104) is stimulated by SCF, which binds and activates c-kit tyrosine kinase receptor.

Another test deals with T1, c-kit kinase domain (Homo sapiens, UniProt P10721).
T1 construct: C-Kit kinase domain (starting amino acid M551, ending amino acid K949); made in house; host or cells: E. coli
Put plainly: c-kit kinase activity biochemical assay (AlphaScreen PY20 or 33P radiolabeled ATP detection). The settings on record: as measured by at least one of AlphaScreen or 33P ATP assay; ATP 10 μM in the AlphaScreen assay; read-out: IC50, inhibition of c-kit kinase activity. The text has this:
Compounds 1-1, 1-2, 1-3, and 1-4 of Table 1 were similarly assayed using a ^33P radiolabeled ATP for detection (Upstate USA, Charlottesville, Va.).
On the technique in general: Alpha assays give light when donor and acceptor beads are brought close together.

Test [2] has as its system cells with activating c-kit mutations in the catalytic region. Particulars: Ma et al., 2002, Blood 99:1741-1744; cited from earlier work.

The structures appear in SMILES notation.

T1 sequence (P10721 552-948 limits assumed): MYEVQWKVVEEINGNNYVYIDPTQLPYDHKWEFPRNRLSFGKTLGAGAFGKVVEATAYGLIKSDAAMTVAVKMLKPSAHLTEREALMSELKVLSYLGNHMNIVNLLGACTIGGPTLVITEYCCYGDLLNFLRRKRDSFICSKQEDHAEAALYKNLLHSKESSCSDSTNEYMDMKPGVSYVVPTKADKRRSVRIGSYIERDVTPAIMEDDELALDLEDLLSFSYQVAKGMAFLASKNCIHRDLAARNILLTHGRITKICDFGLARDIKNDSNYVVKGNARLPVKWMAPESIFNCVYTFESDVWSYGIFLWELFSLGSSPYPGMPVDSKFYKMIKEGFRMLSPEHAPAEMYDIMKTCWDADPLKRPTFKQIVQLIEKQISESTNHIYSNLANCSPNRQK

For orientation: IC50 means the concentration that gives 50% inhibition. Turning to `Clc1ccc(CNc2ccc(Cc3c[nH]c4ncccc34)cn2)cc1` [Compound 1-2, (4-chloro-benzyl)-[5-(1H-pyrrolo[2,3-b]pyridin-3-ylmethyl)-pyridin-2-yl]-amine], the IC50 (in test [1]; on c-kit kinase domain) was < 1000 nM in each case.

For the compound `Fc1ccc(CNc2ccc(Cc3c[nH]c4ncccc34)cn2)cc1` [Compound 1-3, (4-fluoro-benzyl)-[5-(1H-pyrrolo[2,3-b]pyridin-3-ylmethyl)-pyridin-2-yl]-amine], the IC50 on c-kit kinase domain was < 1000 nM.

Turning to `Cc1ccc(CNc2ccc(Cc3c[nH]c4ncccc34)cn2)cc1` [Compound 1-4, (4-methyl-benzyl)-[5-(1H-pyrrolo[2,3-b]pyridin-3-ylmethyl)-pyridin-2-yl]-amine], the IC50 on c-kit kinase domain was < 1000 nM.

Take `Cc1ccc(NC(=O)c2ccc(CN3CCN(C)CC3)cc2)cc1Nc1nccc(-c2cccnc2)n1` [ST1571]: the “inhibition of cells with c-kit mutations in the catalytic region” value in test [2] is reported as “did not inhibit”.
